Molecular target: Factor D (Homo sapiens, UniProt P00746)
Experiment: Factor D esterolytic assay

Factor D, sequence (P00746 26-253): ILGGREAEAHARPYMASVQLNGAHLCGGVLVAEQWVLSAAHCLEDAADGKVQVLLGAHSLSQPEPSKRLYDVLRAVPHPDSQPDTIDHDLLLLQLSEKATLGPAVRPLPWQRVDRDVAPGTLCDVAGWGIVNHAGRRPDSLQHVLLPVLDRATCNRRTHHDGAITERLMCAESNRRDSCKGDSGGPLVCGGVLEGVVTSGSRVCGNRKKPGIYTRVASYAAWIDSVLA

Structure (SMILES) | IC50 [µM]
C[C@@H](O)[C@H](NC(=O)Cn1nc(C(N)=O)c2ccccc21)C(=O)NCc1cccc(Cl)c1F [34d, 1-(2-(((2S,3R)-1-((3-chloro-2-fluorobenzyl)amino)-3-hydroxy-1-oxobutan-2-yl)amino)-2-oxoethyl)-1H-indazole-3-carboxamide] | > 10
Nc1ncnc2c1ccn2CC(=O)N(CC(=O)Nc1cccc(Br)n1)C1CC1 [56d, 2-(4-amino-7H-pyrrolo[2,3-d]pyrimidin-7-yl)-N-(2-((6-bromopyridin-2-yl)amino)-2-oxoethyl)-N-cyclopropylacetamide] | 1 to 10
CC(C)N(CC(=O)NCc1cccc(Cl)c1F)C(=O)Cn1cc(C#N)c2c(N)ncnc21 [60a, 2-(4-amino-5-cyano-7H-pyrrolo[2,3-d]pyrimidin-7-yl)-N-(2-((3-chloro-2-fluorobenzyl)amino)-2-oxoethyl)-N-isopropylacetamide] | 1 to 10
Nc1ncnc2c1ccn2CC(=O)N(CC(=O)NCc1cccc(Cl)c1F)C1CC1 [63a, 2-(4-amino-7H-pyrrolo[2,3-d]pyrimidin-7-yl)-N-(2-((3-chloro-2-fluorobenzyl)amino)-2-oxoethyl)-N-cyclopropylacetamide] | 1 to 10
CC(C)N(CC(=O)NCc1cccc(Cl)c1F)C(=O)Cn1cc(C(N)=O)c2c(N)ncnc21 [65a, 4-amino-7-(2-((2-((3-chloro-2-fluorobenzyl)amino)-2-oxoethyl)(isopropyl)amino)-2-oxoethyl)-7H-pyrrolo[2,3-d]pyrimidine-5-carboxamide] | 1 to 10
Nc1ncnc2c1cnn2CC(=O)N(CC(=O)NCc1cccc(Cl)c1F)C1CC1 [68a, 2-(4-amino-1H-pyrazolo[3,4-d]pyrimidin-1-yl)-N-(2-((3-chloro-2-fluorobenzyl)amino)-2-oxoethyl)-N-cyclopropylacetamide] | 1 to 10
NC(=O)c1ncnc2c1ccn2CC(=O)N(CC(=O)Nc1cncc(Br)n1)C1CC1 [84a, 7-(2-((2-((6-bromopyrazin-2-yl)amino)-2-oxoethyl)(cyclopropyl)amino)-2-oxoethyl)-7H-pyrrolo[2,3-d]pyrimidine-4-carboxamide] | > 10
NC(=O)c1nn(CC(=O)N(CC(=O)NCc2cccc(Cl)c2F)[C@H]2C[C@@H](O)C2)c2ccccc12 [104b, 1-(2-((2-((3-chloro-2-fluorobenzyl)amino)-2-oxoethyl)((cis)-3-hydroxycyclobutyl)amino)-2-oxoethyl)-1H-indazole-3-carboxamide] | < 1
NC(=O)c1nn(CC(=O)N(CC(=O)NCc2cccc(Cl)c2F)[C@H]2C[C@H](O)C2)c2ccccc12 [110b, 1-(2-((2-((3-chloro-2-fluorobenzyl)amino)-2-oxoethyl)((trans)-3-hydroxycyclobutyl)amino)-2-oxoethyl)-1H-indazole-3-carboxamide] | < 1
CC(=O)c1cn(CC(=O)N(CC(=O)NCc2cccc(Cl)c2F)[C@H]2C[C@H](O)C2)c2ccc(Nc3cncnc3)cc12 [114a, 2-(3-acetyl-5-(pyrimidin-5-ylamino)-1H-indol-1-yl)-N-(2-((3-chloro-2-fluorobenzyl)amino)-2-oxoethyl)-N-((trans)-3-hydroxycyclobutyl)acetamide] | < 1
CC(=O)c1cn(CC(=O)N(CC(=O)NCc2cccc(Cl)c2F)C(C)C)c2ccc(C#Cc3cccnc3)cc12 [131a, 2-(3-acetyl-5-(pyridin-3-ylethynyl)-1H-indol-1-yl)-N-(2-((3-chloro-2-fluorobenzyl)amino)-2-oxoethyl)-N-isopropylacetamide] | < 1
CC(C)(C)OC(=O)N[C@H]1C[C@@H](N(CC(=O)NCc2cccc(Cl)c2F)C(=O)Cn2nc(C(N)=O)c3ccccc32)C1 [152b, tert-butyl ((cis)-3-(2-(3-carbamoyl-1H-indazol-1-yl)-N-(2-((3-chloro-2-fluorobenzyl)amino)-2-oxoethyl)acetamido)cyclobutyl)carbamate] | < 1
NC(=O)c1nn(CC(=O)N(CC(=O)NCc2cccc(Cl)c2F)[C@H]2C[C@@H](N)C2)c2ccccc12 [153a, 1-(2-(((cis)-3-aminocyclobutyl)(2-((3-chloro-2-fluorobenzyl)amino)-2-oxoethyl)amino)-2-oxoethyl)-1H-indazole-3-carboxamide] | < 1
CC(C)(C)OC(=O)N[C@H]1C[C@H](CN(CC(=O)NCc2cccc(Cl)c2F)C(=O)Cn2nc(C(N)=O)c3ccccc32)C1 [161b, tert-butyl ((trans)-3-((2-(3-carbamoyl-1H-indazol-1-yl)-N-(2-((3-chloro-2-fluorobenzyl)amino)-2-oxoethyl)acetamido)methyl)cyclobutyl)carbamate] | 1 to 10
NC(=O)c1nn(CC(=O)N(CC(=O)NCc2cccc(Cl)c2F)C[C@H]2C[C@H](N)C2)c2ccccc12 [161c, 1-(2-((((trans)-3-aminocyclobutyl)methyl)(2-((3-chloro-2-fluorobenzyl)amino)-2-oxoethyl)amino)-2-oxoethyl)-1H-indazole-3-carboxamide] | < 1
NC(=O)c1nn(CC(=O)N(CC(=O)NCc2cccc(Cl)c2F)[C@H]2C[C@H](N)C2)c2ccccc12 [169c, 1-(2-(((trans)-3-aminocyclobutyl)(2-((3-chloro-2-fluorobenzyl)amino)-2-oxoethyl)amino)-2-oxoethyl)-1H-indazole-3-carboxamide] | < 1
CO[C@H]1C[C@H](N(CC(=O)NCc2cccc(Cl)c2F)C(=O)Cn2nc(C(N)=O)c3ccccc32)C1 [170b, 1-(2-((2-((3-chloro-2-fluorobenzyl)amino)-2-oxoethyl)((trans)-3-methoxycyclobutyl)amino)-2-oxoethyl)-1H-indazole-3-carboxamide] | < 1
NC(=O)c1nn(CC(=O)N(CC(=O)NCc2cccc(Cl)c2F)C[C@H]2C[C@H](O)C2)c2ccccc12 [172b, 1-(2-((2-((3-chloro-2-fluorobenzyl)amino)-2-oxoethyl)(((trans)-3-hydroxycyclobutyl)methyl)amino)-2-oxoethyl)-1H-indazole-3-carboxamide] | < 1
CC(=O)c1nn(CC(=O)N(CC(=O)NCc2cccc(Cl)c2F)[C@H]2C[C@H](O)C2)c2ccc(Nc3cncnc3)cc12 [182a, 2-(3-acetyl-5-(pyrimidin-5-ylamino)-1H-indazol-1-yl)-N-(2-((3-chloro-2-fluorobenzyl)amino)-2-oxoethyl)-N-(trans-3-hydroxycyclobutyl)acetamide] | < 1
CC(=O)c1nn(CC(=O)N(CC(=O)NCc2cccc(Cl)c2F)[C@H]2C[C@H](O)C2)c2ccccc12 [183a, 2-(3-acetyl-1H-indazol-1-yl)-N-(2-((3-chloro-2-fluorobenzyl)amino)-2-oxoethyl)-N-(trans-3-hydroxycyclobutyl)acetamide] | < 1
N#Cc1cn(CC(=O)N(CC(=O)NCc2cccc(Cl)c2F)C2CC2)c2ccc(C(=O)NCc3ccccc3)cc12 [200i, N-benzyl-1-(2-((2-((3-chloro-2-fluorobenzyl)amino)-2-oxoethyl)(cyclopropyl)amino)-2-oxoethyl)-3-cyano-1H-indole-5-carboxamide] | 1 to 10
NC(=O)c1nn(CC(=O)N(CC(=O)NCc2cccc(Cl)c2F)[C@H]2C[C@@H](CO)C2)c2ccccc12 [210b, 1-(2-((2-((3-chloro-2-fluorobenzyl)amino)-2-oxoethyl)((cis)-3-(hydroxymethyl)cyclobutyl)amino)-2-oxoethyl)-1H-indazole-3-carboxamide] | < 1
COC(=O)c1ccc2c(c1)c(C(C)=O)nn2CC(=O)N(CC(=O)NCc1cccc(Cl)c1F)C1CC1 [227a, methyl 3-acetyl-1-(2-((2-((3-chloro-2-fluorobenzyl)amino)-2-oxoethyl)(cyclopropyl)amino)-2-oxoethyl)-1H-indazole-5-carboxylate] | < 1
CC(O)c1nn(CC(=O)N(CC(=O)NCc2cccc(Cl)c2F)C2CC2)c2ccc(NC(=O)N3CCCC(F)(F)C3)cc12 (stereo not drawn) [289a, N-(1-(2-((2-((3-chloro-2-fluorobenzyl)amino)-2-oxoethyl)(cyclopropyl)amino)-2-oxoethyl)-3-(1-hydroxyethyl)-1H-indazol-5-yl)-3,3-difluoropiperidine-1-carboxamide] | 1 to 10
CC(C)(C)CC(=O)Nc1ccc2c(C(N)=O)nn(CC(=O)N(CC(=O)NCc3cccc(Cl)c3F)C3CC3)c2c1 [322b, 1-(2-((2-((3-chloro-2-fluorobenzyl)amino)-2-oxoethyl)(cyclopropyl)amino)-2-oxoethyl)-6-(3,3-dimethylbutanamido)-1H-indazole-3-carboxamide] | < 1
NC(=O)c1nn(CC(=O)N(CC(=O)NCc2cccc(Cl)c2F)C2CC2)c2ncc(N)cc12 [326b, 5-amino-1-(2-((2-((3-chloro-2-fluorobenzyl)amino)-2-oxoethyl)(cyclopropyl)amino)-2-oxoethyl)-1H-pyrazolo[3,4-b]pyridine-3-carboxamide] | 1 to 10
C[C@H](CO)N(CC(=O)NCc1cccc(Cl)c1F)C(=O)Cn1nc(C(N)=O)c2cc(NC(=O)OC(C)(C)C)ccc21 [345e, (R)-tert-butyl (3-carbamoyl-1-(2-((2-((3-chloro-2-fluorobenzyl)amino)-2-oxoethyl)(1-hydroxypropan-2-yl)amino)-2-oxoethyl)-1H-indazol-5-yl)carbamate] | < 1
NC(=O)c1nn(CC(=O)N(CC(=O)NCc2cccc(Cl)c2F)[C@H]2C[C@H](N)C2)c2ccc([N+](=O)[O-])cc12 [347b, 1-(2-(((trans)-3-aminocyclobutyl)(2-((3-chloro-2-fluorobenzyl)amino)-2-oxoethyl)amino)-2-oxoethyl)-5-nitro-1H-indazole-3-carboxamide] | < 1
NC(=O)c1nn(CC(=O)N(CC(=O)Nc2cccc(Br)n2)[C@H]2C[C@H](N)C2)c2ccccc12 [349d, 1-(2-(((trans)-3-aminocyclobutyl)(2-((6-bromopyridin-2-yl)amino)-2-oxoethyl)amino)-2-oxoethyl)-1H-indazole-3-carboxamide] | < 1
NC(=O)c1nn(CC(=O)N(CC(=O)Nc2cncc(Br)n2)[C@H]2C[C@H](N)C2)c2ccccc12 [350c, 1-(2-(((trans)-3-aminocyclobutyl)(2-((6-bromopyrazin-2-yl)amino)-2-oxoethyl)amino)-2-oxoethyl)-1H-indazole-3-carboxamide] | < 1

From EP3925956B1, “1H-INDAZOLE-3-CARBOXAMIDE DERIVATIVES AND RELATED COMPOUNDS AS FACTOR D INHIBITORS FOR TREATING DISEASES CHARACTERIZED BY ABERRANT COMPLEMENT SYSTEM ACTIVITY, SUCH AS E.G. IMMUNOLOGICAL DISORDERS” (BioCryst Pharmaceuticals, Inc., priority 2016, dated 2017)
